In the supplement of paper PMC5908809:

What was measured:
[1] = test system: normal primary NK cells, pool 3 (3 donors) (IL-2 2.5 ng/mL); test: drug sensitivity score (DSS) (DSS units); higher = more sensitive; extreme values may be limits of the assay; settings: 72 h
SNK-6 (IL-2 2.5 ng/mL) [2] = test: as above; settings: 72 h
[3] = test system: normal primary NK cells, pool 2 (3 donors) (IL-2 2.5 ng/mL); test: as above; settings: 72 h
NK-92 (IL-2 2.5 ng/mL) [4] = test: as above; settings: 72 h
DERL-7 (IL-2 2.5 ng/mL) [5] = test: as above; settings: 72 h
IMC-1 (IL-2 20 ng/mL) [6] = test: as above; settings: 72 h
NK-YS (IL-2 2.5 ng/mL) [7] = test: as above; settings: 72 h
NKL (IL-2 2.5 ng/mL) [8] = test: as above; settings: 72 h
[9] = test system: normal primary NK cells, pool 1 (3 donors), resting (IL-2 0 ng/mL); test: as above; settings: 72 h
YT (IL-2 2.5 ng/mL) [10] = test: as above; settings: 72 h
[11] = test system: normal primary NK cells, pool 1 (3 donors) (IL-2 2.5 ng/mL); test: as above; settings: 72 h
KAI3 (IL-2 2.5 ng/mL) [12] = test: as above; settings: 72 h
KHYG-1 (IL-2 2.5 ng/mL) [13] = test: as above; settings: 72 h
[14] = test system: normal NK cells expanded with K562-aAPC; test: percent inhibition of viability; higher = more inhibition; settings: 72 h, IL-2 2.5 ng/mL
Experimental: (§1)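 Drug sensitivity and resistance testing on K562-aAPC-expanded normal NK cells: 5 concentrations (10-fold steps over a 10,000-fold range), 72 h at 37 °C, viability by CellTiter-Glo normalised to DMSO and benzethonium chloride controls; DSS from the fitted curve.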

[15] = test system: normal NK cells expanded with K562-aAPC; test: drug sensitivity score (DSS) (DSS units); higher = more sensitive; extreme values may be limits of the assay; settings: 72 h; IL-2 2.5 ng/mL
Experimental: as §1

[16] = test system: normal primary NK cells, pool 3 (3 donors) (IL-2 2.5 ng/mL); test: percent inhibition of viability; higher = more inhibition; settings: 72 h
SNK-6 (IL-2 2.5 ng/mL) [17] = test: as above; settings: 72 h
[18] = test system: normal primary NK cells, pool 2 (3 donors) (IL-2 2.5 ng/mL); test: as above; settings: 72 h
NK-92 (IL-2 2.5 ng/mL) [19] = test: as above; settings: 72 h
DERL-7 (IL-2 2.5 ng/mL) [20] = test: as above; settings: 72 h
IMC-1 (IL-2 20 ng/mL) [21] = test: as above; settings: 72 h
NK-YS (IL-2 2.5 ng/mL) [22] = test: as above; settings: 72 h
NKL (IL-2 2.5 ng/mL) [23] = test: as above; settings: 72 h
[24] = test system: normal primary NK cells, pool 1 (3 donors), resting (IL-2 0 ng/mL); test: as above; settings: 72 h
YT (IL-2 2.5 ng/mL) [25] = test: as above; settings: 72 h
[26] = test system: normal primary NK cells, pool 1 (3 donors) (IL-2 2.5 ng/mL); test: as above; settings: 72 h
KAI3 (IL-2 2.5 ng/mL) [27] = test: as above; settings: 72 h
KHYG-1 (IL-2 2.5 ng/mL) [28] = test: as above; settings: 72 h

C[C@]12O[C@H](C[C@]1(O)CO)n1c3ccccc3c3c4c(c5c6ccccc6n2c5c31)CNC4=O [Lestaurtinib] (max concentration tested 1000 nM)
Settings | drug sensitivity score
DERL-7 (IL-2 2.5 ng/mL) [5] | 17.9
IMC-1 (IL-2 20 ng/mL) [6] | 11.8
KAI3 (IL-2 2.5 ng/mL) [12] | 20.1
KHYG-1 (IL-2 2.5 ng/mL) [13] | 21.5
NK-92 (IL-2 2.5 ng/mL) [4] | 15
NK-YS (IL-2 2.5 ng/mL) [7] | 10.6
NKL (IL-2 2.5 ng/mL) [8] | 14.8
SNK-6 (IL-2 2.5 ng/mL) [2] | 12.5
YT (IL-2 2.5 ng/mL) [10] | 11.7
[1] | 11.9
[3] | 14.7
[9] | 3.91
[11] | 15.6
[15] | 21.6

percent inhibition of viability [%]
Settings | 0.1 nM | 1 nM | 10 nM | 100 nM | 1000 nM
DERL-7 (IL-2 2.5 ng/mL) [20] | 6.54 | 3.47 | 17.9 | 85.4 | 99.6
IMC-1 (IL-2 20 ng/mL) [21] | -6.9 | -5.94 | -22.2 | 51.8 | 98.9
KAI3 (IL-2 2.5 ng/mL) [27] | -0.38 | 3.13 | 35.9 | 86.4 | 76.4
KHYG-1 (IL-2 2.5 ng/mL) [28] | -2.95 | 1.85 | 23.3 | 99.3 | 98.2
NK-92 (IL-2 2.5 ng/mL) [19] | -0.14 | -6.28 | 7.06 | 76.2 | 82.7
NK-YS (IL-2 2.5 ng/mL) [22] | -0.02 | 0.67 | 6.21 | 48.1 | 87.8
NKL (IL-2 2.5 ng/mL) [23] | -13.1 | -12.9 | 13.3 | 71.2 | 80.6
SNK-6 (IL-2 2.5 ng/mL) [17] | 0.62 | 7.99 | 4.23 | 64.6 | 73.7
YT (IL-2 2.5 ng/mL) [25] | -2.5 | -0.06 | 3.18 | 55.1 | 91.6
[14] | 0.88 | 0.03 | 29 | 96.5 | 95.9
[16] | -8.42 | -14 | -3.13 | 65.2 | 72.3
[18] | -7.68 | 3.05 | 13.7 | 69.3 | 73
[24] | 4.88 | -1.99 | -2.95 | 26 | 18.6
[26] | -8.02 | -1.5 | 10.2 | 76 | 75.2
